Laboratory results taken from patent publication US20240417428A1, “POLYPEPTIDE FOR INHIBITING TRPM8 AND USE THEREOF” (ZHEJIANG UNIVERSITY, priority 2021, published 2024).
Where a SMILES comes first, the peptide text is derived from it.

Experiments:
[1] = system: CCI-induced static allodynia; assay: Chronic constriction injury (CCI) model of neuropathic pain: static allodynia; type: in vivo; conditions: CCI rats
Source text: Male Sprague Dawley rats (purchased from Shanghai SLAC Laboratory Animals, LLC, 7 weeks old at the beginning of the experiment, n=7-10 per treatment) were used. CCI status was formed according to the method of Bennett G J and Xie Y K (Pain 1988, 33:87-107). Rats were anesthetized by intraperitoneal injection of sodium pentobarbital. The left common sciatic nerve was made to be exposed in the middle of the thigh in a state deprived of adherent tissue, and 4-0 silk thread (Ethicon Inc.) was utilized around it and four passes were loosely ligated at intervals of approximately 1 mm. Sham surgery was performed in the same manner except for sciatic nerve ligation. CCI surgery was performed after 2-3 weeks as described in Field M J et al. (Pain 1999, 83:303-311) documented, static allodynia was evaluated by Von Frey Hairs (VFH). Before starting the experiment, the experimental animals were acclimatized to the grid bottom cage. […] Each VFH was pressed against the phasic paw for 6 seconds, or until a withdrawal response occurred. When one withdrawal response occurred, the experiment was repeated by pressing the VFH at a weaker pressure until no withdrawal response occurred. The minimum pressure required to induce a response was recorded as a withdrawal paw threshold (PWT). If the experimental animal responded below an innocuous 1.4 g VFH, it was determined to be in static allodynia. […]

TRPM4 = target: T1, TRPM4 (Mus musculus, UniProt Q7TN37, K1045A); assay: Electrophysiological recording, ligand activation of TRPM4 (TRPM4-K1045A); type: cell-based
T1 construct: expressed in transfected cells; host or cells: HEK293T
Method: (§1) HEK293T cells were cultured in Dulbecco's modified Eagle culture medium under a 37° C., 5% CO2 environment, 10% fetal bovine serum, penicillin (100 U/mL), and streptomycin ([…]) was needed to add into the culture medium. Transient transfection was conducted by using Lipo 2000 (Invitrogen) transfection kit and following the instruction manual.
(§2) Electrophysiological experiment recordings were performed on the cells within 24˜48 h of transient transfections. Specifically, single channel electrophysiological recordings were performed within 8 h after transfection.
(§3) Measurement of the cell currents was respectively performed in the whole-cell recording mode, inside-out recording mode or outside-out recording mode with a HEKA EPC10 amplifier. In the whole cell electrophysiological recordings, glass microelectrodes made of borosilicate material were fire-polished to a original electrode resistance of about 3-6 MΩ. Serial resistance was compensated by 60%. The whole cell electrophysiological recordings were performed at ±80 mV. For single channel electrophysiological recordings, glass microelectrodes were fire-polished to a higher resistance of 6-8 MΩ2. Current signal was sampled at 10 kHz and filtered at 2.9 kHz. Membrane potential of the cell membrane would be clamped at +80 mV. All electrophysiological recordings were performed at room temperature (22° C.) (the maximum variation is 1° C.). […]

TRPM2 = target: T2, TRPM2 (Homo sapiens, UniProt O94759); assay: Electrophysiological recording, ligand activation of TRPM2; type: cell-based
T2 construct: expressed in transfected cells; host or cells: HEK293T
Method: as §1, §2, §3

TRPV3 = target: T3, TRPV3 (Homo sapiens, UniProt Q8NET8); assay: Electrophysiological recording, ligand activation of TRPV3; type: cell-based
T3 construct: expressed in transfected cells; host or cells: HEK293T
T3 sequence (Q8NET8 1-790): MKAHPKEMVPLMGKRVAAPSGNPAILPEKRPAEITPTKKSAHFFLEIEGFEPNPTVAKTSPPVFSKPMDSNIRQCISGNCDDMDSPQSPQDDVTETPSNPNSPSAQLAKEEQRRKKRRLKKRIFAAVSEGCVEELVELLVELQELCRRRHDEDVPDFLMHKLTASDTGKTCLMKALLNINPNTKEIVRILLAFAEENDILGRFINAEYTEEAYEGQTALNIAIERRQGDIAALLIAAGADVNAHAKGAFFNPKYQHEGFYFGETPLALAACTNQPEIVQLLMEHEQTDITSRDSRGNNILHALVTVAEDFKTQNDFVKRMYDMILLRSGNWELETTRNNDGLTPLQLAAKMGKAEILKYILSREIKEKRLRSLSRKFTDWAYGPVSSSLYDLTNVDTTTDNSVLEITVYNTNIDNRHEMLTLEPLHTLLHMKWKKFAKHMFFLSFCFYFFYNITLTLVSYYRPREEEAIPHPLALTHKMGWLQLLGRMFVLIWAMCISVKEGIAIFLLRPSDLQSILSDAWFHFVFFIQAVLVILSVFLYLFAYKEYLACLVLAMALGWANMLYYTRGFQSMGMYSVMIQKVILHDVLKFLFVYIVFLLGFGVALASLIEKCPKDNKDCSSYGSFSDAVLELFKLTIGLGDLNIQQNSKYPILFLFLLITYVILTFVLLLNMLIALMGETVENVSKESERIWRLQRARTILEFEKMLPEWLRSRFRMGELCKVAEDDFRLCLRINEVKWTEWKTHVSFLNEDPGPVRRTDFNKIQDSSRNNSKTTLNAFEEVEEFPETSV
Method: as §1, §2, §3

T2 sequence (O94759 whole entry): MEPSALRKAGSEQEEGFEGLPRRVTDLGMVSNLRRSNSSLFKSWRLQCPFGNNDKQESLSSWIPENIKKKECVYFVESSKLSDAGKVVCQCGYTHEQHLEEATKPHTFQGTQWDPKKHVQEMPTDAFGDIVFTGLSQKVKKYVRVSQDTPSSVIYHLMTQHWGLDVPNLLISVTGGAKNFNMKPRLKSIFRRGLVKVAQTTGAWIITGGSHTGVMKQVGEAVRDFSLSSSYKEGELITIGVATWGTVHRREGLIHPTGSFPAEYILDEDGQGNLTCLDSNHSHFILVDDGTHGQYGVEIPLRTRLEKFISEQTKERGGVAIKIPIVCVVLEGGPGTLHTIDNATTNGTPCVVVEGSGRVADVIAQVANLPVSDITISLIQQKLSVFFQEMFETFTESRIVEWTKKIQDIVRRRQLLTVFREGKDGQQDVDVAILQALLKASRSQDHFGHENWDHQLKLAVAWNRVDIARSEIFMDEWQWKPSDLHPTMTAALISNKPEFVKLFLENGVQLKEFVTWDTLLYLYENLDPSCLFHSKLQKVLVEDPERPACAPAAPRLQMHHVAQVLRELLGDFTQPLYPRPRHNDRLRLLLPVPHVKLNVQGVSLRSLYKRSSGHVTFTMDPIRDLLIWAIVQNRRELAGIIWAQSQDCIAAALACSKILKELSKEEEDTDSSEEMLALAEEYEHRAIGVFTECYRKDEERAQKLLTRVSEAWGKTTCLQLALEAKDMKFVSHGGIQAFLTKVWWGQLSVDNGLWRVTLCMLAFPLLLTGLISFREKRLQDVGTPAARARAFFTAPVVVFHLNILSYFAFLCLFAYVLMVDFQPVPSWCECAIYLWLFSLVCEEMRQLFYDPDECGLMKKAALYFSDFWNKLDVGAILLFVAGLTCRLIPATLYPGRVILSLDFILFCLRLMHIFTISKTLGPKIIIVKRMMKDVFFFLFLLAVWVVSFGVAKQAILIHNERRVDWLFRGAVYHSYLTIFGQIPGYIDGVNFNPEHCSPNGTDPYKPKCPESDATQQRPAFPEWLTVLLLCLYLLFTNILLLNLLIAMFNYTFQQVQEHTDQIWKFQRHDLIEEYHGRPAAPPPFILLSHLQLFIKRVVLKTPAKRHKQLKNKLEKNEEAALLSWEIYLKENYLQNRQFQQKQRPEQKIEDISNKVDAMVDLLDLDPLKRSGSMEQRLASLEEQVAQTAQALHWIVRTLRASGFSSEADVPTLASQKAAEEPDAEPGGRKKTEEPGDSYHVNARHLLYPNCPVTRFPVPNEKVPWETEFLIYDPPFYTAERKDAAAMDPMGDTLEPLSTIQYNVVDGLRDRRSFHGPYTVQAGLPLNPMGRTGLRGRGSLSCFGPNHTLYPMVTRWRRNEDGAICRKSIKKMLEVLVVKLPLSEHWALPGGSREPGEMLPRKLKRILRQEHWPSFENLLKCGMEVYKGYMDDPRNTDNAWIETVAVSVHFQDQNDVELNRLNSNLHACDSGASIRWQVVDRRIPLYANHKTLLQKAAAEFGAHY
T1 sequence (Q7TN37 whole entry K1045A): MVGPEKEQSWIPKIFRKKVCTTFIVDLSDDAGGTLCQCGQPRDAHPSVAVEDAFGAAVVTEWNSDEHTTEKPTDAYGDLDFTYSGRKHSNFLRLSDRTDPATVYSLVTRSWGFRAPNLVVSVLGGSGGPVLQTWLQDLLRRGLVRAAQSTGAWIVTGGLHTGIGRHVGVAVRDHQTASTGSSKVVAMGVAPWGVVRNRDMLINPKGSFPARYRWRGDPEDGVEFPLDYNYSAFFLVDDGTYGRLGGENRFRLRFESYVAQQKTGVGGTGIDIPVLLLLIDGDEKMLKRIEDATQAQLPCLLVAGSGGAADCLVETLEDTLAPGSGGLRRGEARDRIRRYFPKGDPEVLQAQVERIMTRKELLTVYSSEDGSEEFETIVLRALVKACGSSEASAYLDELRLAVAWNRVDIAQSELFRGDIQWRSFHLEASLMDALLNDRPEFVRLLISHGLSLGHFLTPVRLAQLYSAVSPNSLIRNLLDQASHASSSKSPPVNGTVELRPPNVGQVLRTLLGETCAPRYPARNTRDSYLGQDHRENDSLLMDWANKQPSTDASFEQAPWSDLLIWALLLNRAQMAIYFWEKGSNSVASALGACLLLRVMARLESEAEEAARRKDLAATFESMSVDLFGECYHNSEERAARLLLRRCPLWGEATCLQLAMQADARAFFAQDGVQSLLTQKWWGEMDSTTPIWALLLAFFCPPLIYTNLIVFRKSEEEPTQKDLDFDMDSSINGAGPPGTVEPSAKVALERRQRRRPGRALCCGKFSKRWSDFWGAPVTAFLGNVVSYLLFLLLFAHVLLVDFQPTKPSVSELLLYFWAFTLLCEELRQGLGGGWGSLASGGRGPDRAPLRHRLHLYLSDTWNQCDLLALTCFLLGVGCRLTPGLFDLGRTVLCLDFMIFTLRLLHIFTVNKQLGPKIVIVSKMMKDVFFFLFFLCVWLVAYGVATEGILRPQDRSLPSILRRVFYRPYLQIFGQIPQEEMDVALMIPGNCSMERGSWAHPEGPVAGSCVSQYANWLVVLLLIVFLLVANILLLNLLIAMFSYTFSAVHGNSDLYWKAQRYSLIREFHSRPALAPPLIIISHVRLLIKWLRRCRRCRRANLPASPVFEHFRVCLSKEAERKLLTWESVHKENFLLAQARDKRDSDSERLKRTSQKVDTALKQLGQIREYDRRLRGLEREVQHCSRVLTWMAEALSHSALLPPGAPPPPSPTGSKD

With `C[C@@H]1NC(=O)[C@H](CCCNC(=N)N)NC(=O)[C@H](CC(=O)O)NC(=O)[C@H](CCCNC(=N)N)NC(=O)[C@H](CCCNC(=N)N)NC(=O)[C@@H](N)CSSC[C@@H](C(=O)O)NC(=O)[C@H](CCCNC(=N)N)NC(=O)[C@H](CCC(N)=O)NC(=O)[C@H](CCCNC(=N)N)NC(=O)[C@H](Cc2ccc(O)cc2)NC(=O)[C@H](Cc2c[nH]cn2)NC(=O)[C@H](CCCNC(=N)N)NC1=O` [DeC-1.2, CRRDRARHYRQRC] (HELM PEPTIDE1{C.R.R.D.R.A.R.H.Y.R.Q.R.C}$PEPTIDE1,PEPTIDE1,1:R3-13:R3$$$V2.0; N-terminus and C-terminus assumed) the “activity against static allodynia (von Frey hairs)” value [1] was “exhibited strong activity”, the IC50 (TRPM4) was > 10 µM and the IC50 (TRPM2) was > 100 µM. For the same compound, the “block of ligand activation of TRPM2” value (TRPM2; DeC-1.2 up to 100 μM) was “not blocked”, the IC50 (TRPV3) was > 100 µM and the “inhibition of ligand activation of TRPV3” value (TRPV3; DeC-1.2 5 μM) was “failed to inhibit”.
